Data set [1] has as its system LNCaP. Briefly: Inhibition of PIP5K1alpha protein expression in human LNCAP cells assessed as reduction in AKT phosphorylation at Ser473 residues at 20 uM incubated for 48 hrs by immunoblot analysis relative to control. Format: functional.
Data set [2] deals with PC-3. Briefly: Inhibition of PIP5K1alpha protein expression in human PC3 cells assessed as reduction in AKT phosphorylation at Ser473 residues at 50 uM incubated for 48 hrs by immunoblot analysis relative to control. Format: functional, cell-based.
For data set [3], the system named is LNCaP. The data set can be described thus: Effect on CREB phosphorylation in human LNCAP cells at 20 uM incubated for 48 hrs by immunoblot analysis. Format: functional, cell-based. Background: A western blot detects proteins with antibodies after separation by electrophoresis.
In data set [4] the test system is LNCaP. The data set can be described thus: Inhibition of PSA protein expression in human LNCAP cells at 50 nM incubated for 48 hrs by immunoblot analysis. The class given is functional, cell-based.
Data set [5] has as its system PC-3. Briefly: Antitumor activity against human PC3 cells xenografted in mouse assessed as reduction in volume at 10 mg/kg dosed every second day starting from day 0 and ending on day 20 relative to control. The class given is functional, organism-based. (In general: Xenograft models place foreign cells or tissue in a host animal.)
Data set [6] relates to LNCaP. The data set can be described thus: Inhibition of PIP5K1alpha protein expression in human LNCAP cells assessed as reduction in AKT phosphorylation at Ser473 residues at 50 nM incubated for 48 hrs by immunoblot analysis relative to control. Format: functional, cell-based.
Data set [7] relates to PC-3. Briefly: Induction of morphological changes in human PC3 cells assessed as changes in morphology at 100 nM incubated for 48 hrs by live cell imaging system based assay. The class given is functional.
Data set [8] relates to LNCaP. The data set can be described thus: Effect on CREB phosphorylation in human LNCAP cells at 50 nM incubated for 48 hrs by immunoblot analysis. Format: functional, cell-based.
In data set [9] the test system is PC-3. The data set can be described thus: Induction of morphological changes in human PC3 cells assessed as reduction in cell size at 100 nM incubated for 48 hrs by live cell imaging system based assay. The class given is functional.
Data set [10] relates to LNCaP. Briefly: Inhibition of AR protein expression in human LNCAP cells at 50 nM incubated for 48 hrs by immunoblot analysis. Format: functional, cell-based.
The test system of data set [11] is PC-3. Briefly: Induction of apoptosis in human PC3 cells assessed as viable cells at 100 nM incubated for 48 hrs by Annexin-/7-AAD staining based FACS analysis (reference value: 94.31%). To be noted: PC-3, 48 h, read-out: Activity. Format: functional.
The subject of data set [12] is PC-3. Briefly: Inhibition of PIP5K1alpha protein expression in human PC3 cells assessed as reduction in FAK phosphorylation incubated for 48 hrs by immunoblot analysis relative to control. The class given is functional, cell-based.
Data set [13] has as its system PC-3. Briefly: Inhibition of PIP5K1alpha protein expression in human PC3 cells at 50 nM incubated for 48 hrs by immunoblot analysis. Format: functional, cell-based.
Data set [14] concerns PC-3. The data set can be described thus: Induction of apoptosis in human PC3 cells assessed as late apoptotic cells at 100 nM incubated for 48 hrs by Annexin-/7-AAD staining based FACS analysis (reference value: 2.83%). The class given is functional. A general note: In flow cytometry, cells or beads pass a laser one at a time.
The subject of data set [15] is PC-3. The data set can be described thus: Inhibition of PIP5K1alpha protein expression in human PC3 cells assessed as reduction in AKT phosphorylation at Ser473 residues at 100 nM incubated for 48 hrs by immunoblot analysis relative to control. Format: functional, cell-based.
Data set [16] in a line: Toxicity in mouse xenografted with human PC3 cells at 10 mg/kg dosed every second day starting from day 0 and ending on day 20 relative to control. Particulars: in vivo. The class given is organism-based.
In data set [17] the test system is PC-3. The data set can be described thus: Induction of apoptosis in human PC3 cells assessed as early apoptotic cells at 100 nM incubated for 48 hrs by Annexin-/7-AAD staining based FACS analysis (reference value: 2.53%). The class given is functional.
Data set [18] has as its system PC-3. The data set can be described thus: Induction of apoptosis in human PC3 cells assessed as necrotic cells at 100 nM incubated for 48 hrs by Annexin-/7-AAD staining based FACS analysis (reference value: 0.32%). Format: functional.

Active and inactive are the calls of the source. No cut-off for these calls is given here.

As for `CN1CC(=O)N2[C@H](c3ccc4c(c3)OCO4)c3[nH]c4ccccc4c3C[C@@H]2C1=O`, the inhibition entry with LNCaP [1] and in the data set with PC-3 [2] was “inactive” throughout. For the same compound, the outcome in the data set with LNCaP [3] was inactive.
Take `COc1cc([C@@H]2c3cc4c(cc3[C@@H](O[C@@H]3O[C@@H]5CO[C@@H](C)O[C@H]5[C@H](O)[C@H]3O)[C@H]3COC(=O)[C@H]23)OCO4)cc(OC)c1O`: the inhibition entry in the data set on LNCaP [1] and in the data set with PC-3 [2] was “inactive” in each case. Further, in the data set on LNCaP [3], the outcome was inactive.
With `CC(=O)O[C@@]12CO[C@@H]1C[C@H](O)[C@@]1(C)C(=O)[C@H](O)C3=C(C)[C@@H](OC(=O)[C@H](O)[C@@H](NC(=O)OC(C)(C)C)c4ccccc4)C[C@@](O)([C@@H](OC(=O)c4ccccc4)[C@H]21)C3(C)C` [DOCETAXEL ANHYDROUS], the inhibition entry with LNCaP [4], with LNCaP [6], in the data set on LNCaP [10], in the data set on PC-3 [12], with PC-3 [13] and in the data set on PC-3 [15] was “inactive” throughout. In addition, the outcome with PC-3 [5], with PC-3 [7] and in the data set on PC-3 [9] was Active. In addition, the result in the data set on LNCaP [8] was inactive. Moreover, the viability at 0.1 µM in the data set with PC-3 [11] was found to be 89.8%. The Activity in the data set with PC-3 [14] is 6.36%; in [16] it was “Toxic”; in the data set with PC-3 [17] it was 2.73%; with PC-3 [18], 1.15%.

The record behind these values is ChEMBL document CHEMBL4419175, “Compositions for treatment, diagnosis and prognosis of diseases” (2016).
